This experiment concerns the target T1, recombinant rat mGluR5 (Rattus norvegicus, UniProt P31424).
T1 construct: expressed in transfected cells
The experiment in a line: Functional calcium flux assay (FLIPR), antagonist evaluation against glutamate-evoked [Ca2+]i increase. It is filed as cell-based. Conditions: Table 1; HEK293 cells stably expressing recombinant rat mGluR5; 15 min incubation of test compound, then submaximal glutamate; read-out: IC50 value (FLIPR assay). As to the method: Functional Calcium Clux Assay Methodology
For functional assays, HEK293 cells stably expressing recombinant rat mGluR5 were seeded in 384-well plates and dye loaded using Fluo-8. Cells were then washed to remove the un-incorporated dye. Antagonist evaluation was performed following a 15 min incubation of the test compound followed by the addition of submaximal concentration of glutamate. Intracellular calcium ([Ca^2+]i) measurements were performed using a fluorometric imaging plate reader (FLIPR, Molecular Devices). The glutamate-evoked increase in [Ca^2′]i in the presence of the test compounds was compared to the response to glutamate alone (the positive control). Antagonist inhibition curves were fitted with a 4-parameter logistic equation giving IC50 values, and Hill coefficients using an iterative nonlinear curve fitting algorithm.
The tables below provide IC50 data in this assay. In the activity column, A=IC50>1,000 and ≤5,000 nM; B=IC50>500 and ≤1,000 nM and C=IC50≤500 nM.
On the technique in general: A change in cytosolic calcium serves as a functional read-out for many receptors and channels.

This is an account of results in patent US10941132B2, “Pyrazole derivatives” (HUA MEDICINE (SHANGHAI) Ltd., priority 2016, dated 2021).

SMILES strings stand for the structures.

T1 sequence (P31424 21-1203): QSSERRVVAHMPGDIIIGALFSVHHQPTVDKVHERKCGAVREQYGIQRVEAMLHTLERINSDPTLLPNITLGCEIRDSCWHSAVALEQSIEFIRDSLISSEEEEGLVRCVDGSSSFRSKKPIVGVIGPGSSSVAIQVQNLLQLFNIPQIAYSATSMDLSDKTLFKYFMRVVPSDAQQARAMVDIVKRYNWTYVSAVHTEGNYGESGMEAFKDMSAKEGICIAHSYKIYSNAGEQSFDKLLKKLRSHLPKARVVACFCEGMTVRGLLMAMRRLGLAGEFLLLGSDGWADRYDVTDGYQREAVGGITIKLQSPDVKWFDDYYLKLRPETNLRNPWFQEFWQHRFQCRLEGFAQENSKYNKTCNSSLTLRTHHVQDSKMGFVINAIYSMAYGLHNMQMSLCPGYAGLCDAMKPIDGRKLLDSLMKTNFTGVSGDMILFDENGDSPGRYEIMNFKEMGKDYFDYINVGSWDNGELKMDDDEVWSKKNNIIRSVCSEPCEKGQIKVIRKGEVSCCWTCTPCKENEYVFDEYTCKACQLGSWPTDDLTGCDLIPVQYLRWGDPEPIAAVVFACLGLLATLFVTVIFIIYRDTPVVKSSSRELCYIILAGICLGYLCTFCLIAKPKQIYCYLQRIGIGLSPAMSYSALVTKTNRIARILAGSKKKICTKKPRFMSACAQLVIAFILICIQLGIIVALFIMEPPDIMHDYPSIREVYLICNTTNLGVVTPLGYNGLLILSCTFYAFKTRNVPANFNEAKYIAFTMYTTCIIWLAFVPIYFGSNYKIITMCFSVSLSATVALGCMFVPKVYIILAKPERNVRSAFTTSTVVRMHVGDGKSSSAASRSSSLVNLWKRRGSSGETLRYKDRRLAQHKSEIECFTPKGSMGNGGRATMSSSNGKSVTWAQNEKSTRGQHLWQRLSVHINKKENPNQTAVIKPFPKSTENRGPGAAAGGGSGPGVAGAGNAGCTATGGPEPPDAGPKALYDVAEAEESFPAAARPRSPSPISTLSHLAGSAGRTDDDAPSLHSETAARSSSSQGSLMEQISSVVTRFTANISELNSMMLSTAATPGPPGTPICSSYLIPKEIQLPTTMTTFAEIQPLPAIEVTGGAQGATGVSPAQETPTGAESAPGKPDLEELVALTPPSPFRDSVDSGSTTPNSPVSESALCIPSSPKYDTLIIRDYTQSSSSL

Regarding `Cc1nn(-c2ccc(F)cc2)c(C)c1C#Cc1ccccn1` [Compound 1], the IC50 was ≤ 500 nM. As for `Cc1nn(-c2ccc(F)cc2)c(C)c1C#Cc1ncccn1` [Compound 2, 2-((1-(4-fluorophenyl)-3,5-dimethyl-1H-pyrazol-4-yl)ethynyl) pyrimidine], the IC50 is ≤ 500 nM.

`Cc1nn(-c2ccc(F)cc2)c(C)c1C#Cc1ccncn1` [Compound 3, 4-((1-(4-fluorophenyl)-3,5-dimethyl-1H-pyrazol-4-yl)ethynyl) pyrimidine]: the IC50 is ≤ 500 nM.

With `Cc1nn(-c2ccc(OC(F)(F)F)cc2)c(C)c1C#Cc1ccccn1` [Compound 4, 2-((3,5-dimethyl-1-(4-(trifluoromethoxy)phenyl)-H-pyrazol-4-yl)ethynyl)pyridine], the IC50 was ≤ 500 nM. In the case of `Cc1nn(-c2cc(F)cc(C#N)c2)c(C)c1C#Cc1ccccn1` [Compound 5] it was ≤ 500 nM; in that of `COc1nn(-c2ccc(OC(F)(F)F)cc2)c(C)c1C#Cc1ccccn1` [Compound 7, 2-((3-methoxy-5-methyl-1-(4-(trifluoromethoxy)phenyl)-1H-pyrazol-4-yl)ethynyl)pyridine], ≤ 500 nM; in that of `COc1nn(-c2ccc(F)cc2)c(C)c1C#Cc1ccccn1` [Compound 8, 2-((1-(4-fluorophenyl)-3-methoxy-5-methyl-1H-pyrazol-4-yl)ethynyl)pyridine], ≤ 500 nM. Consider `COc1c(C#Cc2ccccn2)c(C)nn1-c1ccc(F)cc1` [Compound 9, 2-((1-(4-fluorophenyl)-5-methoxy-3-methyl-1H-pyrazol-4-yl)ethynyl)pyridine], for which the IC50 was ≤ 500 nM. As for `COc1c(C#Cc2ccccn2)c(C)nn1-c1ccc(OC(F)(F)F)cc1` [Compound 10, 2-((3-methyl-5-methoxy-1-(4-(trifluoromethoxy)phenyl)-1H-pyrazol-4-yl)ethynyl) pyridine], the IC50 was in the range of 1000 to 5000 nM. Next, `Cc1nn(-c2cc(F)cc(C#N)c2)c(C(F)(F)F)c1C#Cc1ccccn1` [Compound 11, 3-fluoro-5-(3-methyl-4-(pyridin-2-ylethynyl)-5-(trifluoromethyl)-1H-pyrazol-1-yl)benzonitrile]: 1000 to 5000 nM; `Cc1nn(-c2ccc(F)cc2)c(C(F)(F)F)c1C#Cc1ccccn1` [Compound 12, 2-((1-(4-fluorophenyl)-3-methyl-5-(trifluoromethyl)-1H-pyrazol-4-yl)ethyny) pyridine]: ≤ 500 nM. In the case of `Cc1nn(-c2ccc(OC(F)(F)F)cc2)c(C(F)(F)F)c1C#Cc1ccccn1` [Compound 13, 2-((3-methyl-1-(4-(trifluoromethoxy)phenyl)-5-(trifluoromethyl)-1H-pyrazol-4-yl)ethynyl) pyridine], the IC50 was in the range of 1000 to 5000 nM.

With `Cc1nn(-c2ccc(OC(F)(F)F)cc2)c(C)c1C#Cc1ncccn1` [Compound 14, 2-((3,5-dimethyl-1-(4-(trifluoromethoxy)phenyl)-1H-pyrazol-4-yl)ethynyl) pyrimidine], the IC50 was ≤ 500 nM. Take `Cc1c(C#Cc2ccccn2)c(N(C)C)nn1-c1cc(F)cc(C#N)c1` [Compound 15, 3-(3-(dimethylaminuteso)-5-methyl-4-(2-(pyridin-2-yl)ethynyl)-1H-pyrazol-1-yl)-5-fluorobenzonitrile]: the IC50 was in the range of 1000 to 5000 nM. As for `Cc1c(C#Cc2ccccn2)c(N(C)C)nn1-c1ccc(OC(F)(F)F)cc1` [Compound 16], the IC50 lay within 1000 to 5000 nM. For the compound `Fc1ccc(-n2ncc(C#Cc3ncccn3)c2Cl)cc1` [Compound 17], the IC50 was ≤ 500 nM.

As for `Fc1ccc(-n2ncc(C#Cc3ccccn3)c2Cl)cn1` [Compound 18], the IC50 was ≤ 500 nM. On to `Fc1ccc(-n2ncc(C#Cc3ncccn3)c2Cl)cn1` [Compound 19, 2-((5-chloro-1-(6-fluoropyridin-3-yl)-1H-pyrazol-4-yl)ethynyl)pyrimidine], for which the half-maximal inhibitory concentration (IC50) is ≤ 500 nM. As to `Fc1ccc(-n2ncc(C#Cc3ccccn3)c2Cl)cc1` [Compound 20], the IC50 was ≤ 500 nM. Turning to `FC(F)(F)Oc1ccc(-n2ncc(C#Cc3ccccn3)c2Cl)cc1` [Compound 21], the IC50 is ≤ 500 nM. Next, `FC(F)(F)Oc1ccc(-n2ncc(C#Cc3ncccn3)c2Cl)cc1` [Compound 22]: ≤ 500 nM; `Fc1ccc(-n2cc(C#Cc3ccccn3)cn2)cn1` [Compound 23]: ≤ 500 nM; `Cc1nn(-c2ccc(F)nc2)c(C)c1C#Cc1ccccn1` [Compound 24]: ≤ 500 nM.

With `Cc1nn(-c2ccc(F)cn2)c(C)c1C#Cc1ccccn1` [Compound 25, 2-(3,5-dimethyl-4-(pyridin-2-ylethynyl)-H-pyrazol-1-yl)-5-fluoropyridine], the 50% inhibitory concentration (IC50) was ≤ 500 nM.

`COCCOc1ccc(-n2cc(C#Cc3ccccn3)cn2)cc1` [Compound 26, 2-((1-(4-(2-methoxyethoxy)phenyl)-1H-pyrazol-4-yl)ethynyl) pyridine]: the IC50 is ≤ 500 nM.

Turning to `Fc1ccc(-n2cc(C#Cc3ccccn3)cn2)nc1` [Compound 27, 5-fluoro-2-(4-(pyridin-2-ylethynyl)-1H-pyrazol-1-yl)pyridine], the IC50 is ≤ 500 nM. Next, `COCCOc1ccc(-n2cc(C#Cc3ccccn3)cn2)cn1` [Compound 28, 2-(2-methoxyethoxy)-5-(4-(pyridin-2-ylethynyl)-1H-pyrazol-1-yl) pyridine]: ≤ 500 nM; `COCCOc1nn(-c2cc(F)cc(C#N)c2)c(C)c1C#Cc1ccccn1` [Compound 29, 3-fluoro-5-(3-(2-methoxyethoxy)-5-methyl-4-(pyridin-2-ylethynyl)-1H-pyrazol-1-yl)benzonitrile]: ≤ 500 nM. In the case of `COCCOc1nn(-c2cc(F)cc(C#N)c2)c(C)c1C#Cc1ncccn1` [Compound 30, 3-fluoro-5-(3-(2-methoxyethoxy)-5-methyl-4-(pyrimidin-2-ylethynyl)-1H-pyrazol-1-yl)benzonitrile] it was 1000 to 5000 nM; in that of `COCCOc1nn(-c2ccc(OC(F)(F)F)cc2)cc1C#Cc1ccccn1` [Compound 31, 2-((3-(2-methoxyethoxy)-1-(4-(trifluoromethoxy)phenyl)-1H-pyrazol-4-yl)ethynyl)pyridine], 1000 to 5000 nM. Take `COCCOc1nn(-c2cc(F)cc(C#N)c2)cc1C#Cc1ccccn1` [Compound 32, 3-fluoro-5-(3-(2-methoxyethoxy)-4-(pyridin-2-ylethynyl)-1H-pyrazol-1-yl)benzonitrile]: the IC50 is ≤ 500 nM. In the case of `Fc1cncc(-n2cc(C#Cc3ccccn3)cn2)c1` [Compound 33] it was ≤ 500 nM; in that of `Fc1ccc(-n2cc(C#Cc3ncccn3)cn2)cn1` [Compound 34, 2-((1-(6-fluoropyridin-3-yl)-1H-pyrazol-4-yl)ethynyl)pyrimidine], ≤ 500 nM. Take `FC(F)(F)c1ccc(-n2ncc(C#Cc3ccccn3)c2Cl)cc1` [Compound 35, 2-((5-chloro-1-(4-(trifluoromethyl)phenyl)-1H-pyrazol-4-yl)ethynyl)pyridine]: the IC50 was ≤ 500 nM.

For the compound `FC(F)(F)c1ccc(-n2ncc(C#Cc3ncccn3)c2Cl)cc1` [Compound 36, 2-((5-chloro-1-(4-(trifluoromethyl)phenyl)-1H-pyrazol-4-yl)ethynyl) pyrimidine], the IC50 was ≤ 500 nM. Next, `Cc1c(C#Cc2ccccn2)c(OC(F)F)nn1-c1cc(F)cc(C#N)c1` [Compound 37, 3-(3-(difluoromethoxy)-5-methyl-4-(pyridin-2-ylethynyl)-1H-pyrazol-1-yl)-5-fluorobenzonitrile]: ≤ 500 nM. Turning to `N#Cc1cc(F)cc(-n2cc(C#Cc3ccccn3)c(Cl)n2)c1` [Compound 38, 3-(3-chloro-4-(pyridin-2-ylethynyl)-1H-pyrazol-1-yl)-5-fluorobenzonitrile], the IC50 is ≤ 500 nM.

`N#Cc1cc(F)cc(-n2cc(C#Cc3ncccn3)c(Cl)n2)c1` [Compound 39, 3-(3-chloro-4-(pyrimidin-2-ylethynyl)-1H-pyrazol-1-yl)-5-fluorobenzonitrile]: the IC50 is ≤ 500 nM.

For `FC(F)(F)Oc1ccc(-n2cc(C#Cc3ccccn3)c(Cl)n2)cc1` [Compound 40, 2-((3-chloro-1-(4-(trifluoromethoxy)phenyl)-1H-pyrazol-4-yl)ethynyl)pyridine], the IC50 was ≤ 500 nM. As for `FC(F)(F)Oc1ccc(-n2cc(C#Cc3ncccn3)c(Cl)n2)cc1` [Compound 41, 2-((3-chloro-1-(4-(trifluoromethoxy)phenyl)-1H-pyrazol-4-yl)ethynyl)pyrimidine], the IC50 lay within 1000 to 5000 nM. For `Fc1ccc(-n2cc(C#Cc3ccccn3)c(Cl)n2)cc1` [Compound 42, 2-((3-chloro-1-(4-fluorophenyl)-1H-pyrazol-4-yl)ethynyl)pyridine], the IC50 was ≤ 500 nM. Turning to `Fc1ccc(-n2cc(C#Cc3ncccn3)c(Cl)n2)cc1` [Compound 43, 2-((3-chloro-1-(4-fluorophenyl)-1H-pyrazol-4-yl)ethynyl)pyrimidine], the IC50 was ≤ 500 nM.

For the compound `Fc1cncc(-n2cc(C#Cc3ccccn3)c(Cl)n2)c1` [Compound 44, 3-(3-chloro-4-(pyridin-2-ylethynyl)-1H-pyrazol-1-yl)-5-fluoropyridine], the IC50 is ≤ 500 nM. With `Fc1cncc(-n2cc(C#Cc3ncccn3)c(Cl)n2)c1` [Compound 45, 2-((3-chloro-1-(5-fluoropyridin-3-yl)-1H-pyrazol-4-yl)ethynyl) pyrimidine], the IC50 was 1000 to 5000 nM. As for `CS(=O)(=O)c1ccc(-n2cc(C#Cc3ccccn3)cn2)cc1` [Compound 46, 2-((1-(4-(methylsulfonyl)phenyl)-1H-pyrazol-4-yl)ethynyl)pyridine], the IC50 lay within 500 to 1000 nM.

A word on the IC50: it is the concentration at which inhibition is half-maximal.
